# Results as given in patent US20240343704A1, “HALO-SUBSTITUTED AMINO PYRIDINE COMPOUNDS AS INHIBITORS OF THE HAEMATOPOIETIC PROGENITOR KINASE 1 (HPK1)” (priority 2021, published 2024).
# Molecular target: T1, Recombinant (1-346) HPK1 (h) (Homo sapiens, UniProt Q92918)
# T1 construct: Recombinant (1-346) HPK1 (h) is incubated with 8 mM MOPS pH 7.0
# T1 sequence (Q92918 1-346): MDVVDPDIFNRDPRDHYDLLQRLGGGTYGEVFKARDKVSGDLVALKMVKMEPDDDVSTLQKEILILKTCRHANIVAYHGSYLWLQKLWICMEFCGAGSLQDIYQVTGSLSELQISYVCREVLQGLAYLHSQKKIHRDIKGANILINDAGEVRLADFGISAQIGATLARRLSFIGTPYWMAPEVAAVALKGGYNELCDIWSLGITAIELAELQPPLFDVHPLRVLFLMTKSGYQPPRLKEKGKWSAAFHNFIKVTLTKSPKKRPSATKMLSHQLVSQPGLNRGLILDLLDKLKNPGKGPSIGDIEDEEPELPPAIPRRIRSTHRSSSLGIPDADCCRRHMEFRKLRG
# Assay: HPK1 Human STE Kinase Enzymatic Radiometric Assay
# Format: biochemical
# Settings: read-out: HPK1 IC50 nM Range*
# Description: A stock solution of 10 mM of test compound is prepared in DMSO. The compound plate was prepared by 3-fold and 9-point serial dilutions. […] The reaction is initiated by The addition of the Mg/ATP mix. After incubation for 40 minutes at RT, the reaction is stopped by the addition of phosphoric acid to a concentration of 0.5%.
row,SMILES,IC50 [nM]
1,"Cc1[nH]c(=O)c2ccc(-c3cc(-c4ccc(N5CCOCC5)c(CN(C)C)c4)c(F)nc3N)cc2c1F [I-515, 6-(2-amino-5-(3-((dimethylamino)methyl)-4-morpholinophenyl)-6-fluoropyridin-3-yl)-4-fluoro-3-methylisoquinolin-1(2H)-one]",11 to 100
2,"COc1ccc(-c2cc(-c3ccc4c(c3)CCNC4=O)c(N)nc2F)cc1CN1CC(OC)C1 [I-516, 6-(2-amino-6-fluoro-5-(4-methoxy-3-((3-methoxyazetidin-1-yl)methyl)phenyl)pyridin-3-yl)-3,4-dihydroisoquinolin-1(2H)-one]",11 to 100
3,"COc1ccc(-c2cc(-c3cc4c(cc3F)C(=O)NCC4)c(N)nc2F)cc1CN1CC(OC)C1 [I-517, 6-(2-amino-6-fluoro-5-(4-methoxy-3-((3-methoxyazetidin-1-yl)methyl)phenyl)pyridin-3-yl)-7-fluoro-3,4-dihydroisoquinolin-1(2H)-one]",11 to 100
4,"COc1ccc(-c2cc(-c3ccc4c(c3)CCNC4=O)c(N)nc2F)cc1CN1CCC(OC)CC1 [I-518, 6-(2-amino-6-fluoro-5-(4-methoxy-3-((4-methoxypiperidin-1-yl)methyl)phenyl)pyridin-3-yl)-3,4-dihydroisoquinolin-1(2H)-one]",11 to 100
5,"COc1ccc(-c2cc(-c3cc4c(cc3F)C(=O)NCC4)c(N)nc2F)cc1CN1CCC(OC)CC1 [I-519, 6-(2-amino-6-fluoro-5-(4-methoxy-3-((4-methoxypiperidin-1-yl)methyl)phenyl)pyridin-3-yl)-7-fluoro-3,4-dihydroisoquinolin-1(2H)-one]",11 to 100
6,"Nc1nc(F)c(-c2ccc([C@]34C[C@H]3CN(C3CCC3)C4)cc2)cc1-c1ccc2c(=O)[nH]cc(F)c2c1 [I-520, 6-(2-amino-5-(4-((1S,5R)-3-cyclobutyl-3-azabicyclo[3.1.0]hexan-1-yl)phenyl)-6-fluoropyridin-3-yl)-4-fluoroisoquinolin-1(2H)-one]",0.1 to 10
7,"Cc1[nH]c(=O)c2ccc(-c3cc(-c4ccc(C5CCOCC5)c(CN(C)C)c4)c(F)nc3N)cc2c1F [I-521, 6-(2-amino-5-(3-((dimethylamino)methyl)-4-(tetrahydro-2H-pyran-4-yl)phenyl)-6-fluoropyridin-3-yl)-4-fluoro-3-methylisoquinolin-1(2H)-one]",11 to 100
8,"COC1CN(Cc2cc(-c3cc(-c4ccc5c(c4)CCNC5=O)c(N)nc3F)ccc2N2CCOCC2)C1 [I-522, 6-(2-amino-6-fluoro-5-(3-((3-methoxyazetidin-1-yl)methyl)-4-morpholinophenyl)pyridin-3-yl)-3,4-dihydroisoquinolin-1(2H)-one]",11 to 100
9,"COC1CN(Cc2cc(-c3cc(-c4cc5c(cc4F)C(=O)NCC5)c(N)nc3F)ccc2N2CCOCC2)C1 [I-523, 6-(2-amino-6-fluoro-5-(3-((3-methoxyazetidin-1-yl)methyl)-4-morpholinophenyl)pyridin-3-yl)-7-fluoro-3,4-dihydroisoquinolin-1(2H)-one]",11 to 100
10,"CN(C)Cc1cc(-c2cc(-c3ccc4c(c3)CCNC4=O)c(N)nc2F)ccc1OCCCC(F)F [I-524, 6-(2-amino-5-(4-(4,4-difluorobutoxy)-3-((dimethylamino)methyl)phenyl)-6-uoropyridin-3-yl)-3,4-dihydroisoquinolin-1(2H)-one]",0.1 to 10
11,"CN(C)Cc1cc(-c2cc(-c3cc4c(cc3F)C(=O)NCC4)c(N)nc2F)ccc1OCCCC(F)F [I-525, 6-(2-amino-5-(4-(4,4-difluorobutoxy)-3-((dimethylamino)methyl)phenyl)-6-fluoropyridin-3-yl)-7-fluoro-3,4-dihydroisoquinolin-1(2H)-one]",11 to 100
12,"COC1CCN(Cc2cc(-c3cc(-c4ccc5c(c4)CCNC5=O)c(N)nc3F)ccc2OCCCC(F)F)CC1 [I-526, 6-(2-amino-5-(4-(4,4-difluorobutoxy)-3-((4-methoxypiperidin-1-yl)methyl)phenyl)-6-fluoropyridin-3-yl)-3,4-dihydroisoquinolin-1(2H)-one]",11 to 100
13,"COC1CCN(Cc2cc(-c3cc(-c4cc5c(cc4F)C(=O)NCC5)c(N)nc3F)ccc2OCCCC(F)F)CC1 [I-527, 6-(2-amino-5-(4-(4,4-difluorobutoxy)-3-((4-methoxypiperidin-1-yl)methyl)phenyl)-6-fluoropyridin-3-yl)-7-fluoro-3,4-dihydroisoquinolin-1(2H)-one]",11 to 100
14,"Nc1nc(F)c(-c2ccc(C3=CCOCC3)cc2CO)cc1-c1cc2c(cc1F)C(=O)NCC2 [I-528, 6-(2-amino-5-(4-(3,6-dihydro-2H-pyran-4-yl)-2-(hydroxymethyl)phenyl)-6-fluoropyridin-3-yl)-7-fluoro-3,4-dihydroisoquinolin-1(2H)-one]",101 to 1000
15,"Cc1[nH]c(=O)c2c(F)cc(-c3cc(-c4ccc(N5CCN(CC6CC6)CC5)cc4)c(F)nc3N)cc2c1F [I-529, 6-(2-amino-5-(4-(4-(cyclopropylmethyl)piperazin-1-yl)phenyl)-6-fluoropyridin-3-yl)-4,8-difluoro-3-methylisoquinolin-1(2H)-one]",0.1 to 10
16,"CN(C)Cc1cc(-c2cc(-c3ccc4c(c3)CCNC4=O)c(N)nc2F)ccc1OC1CCOCC1 [I-530, 6-(2-amino-5-(3-((dimethylamino)methyl)-4-((tetrahydro-2H-pyran-4-yl)oxy)phenyl)-6-fluoropyridin-3-yl)-3,4-dihydroisoquinolin-1(2H)-one]",11 to 100
17,"CN(C)Cc1cc(-c2cc(-c3cc4c(cc3F)C(=O)NCC4)c(N)nc2F)ccc1OC1CCOCC1 [I-531, 6-(2-amino-5-(3-((dimethylamino)methyl)-4-((tetrahydro-2H-pyran-4-yl)oxy)phenyl)-6-fluoropyridin-3-yl)-7-fluoro-3,4-dihydroisoquinolin-1(2H)-one]",11 to 100
18,"CN(C)Cc1cc(-c2cc(-c3ccc4c(c3)CCNC4=O)c(N)nc2F)ccc1OCC1CCOCC1 [I-532, 6-(2-amino-5-(3-((dimethylamino)methyl)-4-((tetrahydro-2H-pyran-4-yl)methoxy)phenyl)-6-fluoropyridin-3-yl)-3,4-dihydroisoquinolin-1(2H)-one]",11 to 100
19,"CN(C)Cc1cc(-c2cc(-c3cc4c(cc3F)C(=O)NCC4)c(N)nc2F)ccc1OCC1CCOCC1 [I-533, 6-(2-amino-5-(3-((dimethylamino)methyl)-4-((tetrahydro-2H-pyran-4-yl)methoxy)phenyl)-6-fluoropyridin-3-yl)-7-fluoro-3,4-dihydroisoquinolin-1(2H)-one]",0.1 to 10
20,"Cc1[nH]c(=O)c2c(F)cc(-c3cc(-c4ccc(N5CCOCC5)c(CN(C)C)c4)c(F)nc3N)cc2c1F [I-534, 6-(2-amino-5-(3-((dimethylamino)methyl)-4-morpholinophenyl)-6-fluoropyridin-3-yl)-4,8-difluoro-3-methylisoquinolin-1(2H)-one]",11 to 100
21,"Cc1[nH]c(=O)c2c(F)cc(-c3cc(-c4ccc(C5CCOCC5)c(CN(C)C)c4)c(F)nc3N)cc2c1F [I-535, 6-(2-amino-5-(3-((dimethylamino)methyl)-4-(tetrahydro-2H-pyran-4-yl)phenyl)-6-fluoropyridin-3-yl)-4,8-difluoro-3-methylisoquinolin-1(2H)-one]",11 to 100
22,"COc1ccc(-c2cc(-c3ccc4c(c3)CCNC4=O)c(N)nc2F)cc1CO [I-536, 6-(2-amino-6-fluoro-5-(3-(hydroxymethyl)-4-methoxyphenyl)pyridin-3-yl)-3,4-dihydroisoquinolin-1(2H)-one]",11 to 100
23,COc1c[nH]c(=O)c2ccc(-c3cc(-c4ccc(N5CCN(C(C)C)CC5)cc4)c(F)nc3N)cc12 [I-537],0.1 to 10
